From patent publication US20100016294A1, “METHODS FOR REDUCING THE RISK OF AN ADVERSE DRUG I[…] A PATIENT SUFFERING FROM INSOMNIA” (QUESTCOR PHARMACEUTICALS, INC., priority 2008, published 2010) come the findings set out here.

This data set addresses T1, CYP2B6 (Homo sapiens, UniProt P20813).
T1 sequence (P20813 1-491): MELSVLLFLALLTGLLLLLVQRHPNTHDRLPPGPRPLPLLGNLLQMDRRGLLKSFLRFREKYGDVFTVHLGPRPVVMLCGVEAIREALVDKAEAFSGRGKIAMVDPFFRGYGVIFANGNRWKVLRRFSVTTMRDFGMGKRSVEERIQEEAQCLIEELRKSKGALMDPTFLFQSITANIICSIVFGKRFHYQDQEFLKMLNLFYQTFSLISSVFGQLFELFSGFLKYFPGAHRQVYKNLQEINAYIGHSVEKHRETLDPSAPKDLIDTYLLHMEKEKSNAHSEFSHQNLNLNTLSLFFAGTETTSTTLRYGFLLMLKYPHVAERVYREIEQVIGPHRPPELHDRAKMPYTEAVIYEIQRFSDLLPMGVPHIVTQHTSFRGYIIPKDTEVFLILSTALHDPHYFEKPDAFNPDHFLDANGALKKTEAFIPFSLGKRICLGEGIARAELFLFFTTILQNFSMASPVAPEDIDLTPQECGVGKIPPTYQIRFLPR
As to the kind of experiment: Direct inhibition of CYP2B6 (Bupropion hydroxylase) activity in pooled human liver microsomes. The conditions noted are these: pH 7.4, probe Bupropion (hydroxylation to hydroxyBupropion).

Each structure is given as a SMILES string.

Protocol: The total amount of organic solvent was ≦1%. Each incubation included 0.1 M phosphate buffer (pH 7.4), substrate, inhibitor and microsomal protein in a final volume of approximately 0.5 mL. Reactions were initiated by addition of NADPH (1 mM final concentration) and incubated for the indicated times at 37° C. with gentle agitation.
Control incubations included positive inhibitor control samples for direct inhibition as well as samples without NADPH. All reactions were terminated by the addition of organic solvent, and internal standard was added (when appropriate), and samples were mixed and centrifuged at approximately 3000 rpm for 10 minutes. The organic layer was transferred to a clean tube and evaporated to dryness at about 40° C. under nitrogen. The sample was reconstituted and analyzed by LC MS/MS.
Incubations to determine CYP2B6-mediated conversion of Bupropion to hydroxyBupropion (OHBP) in microsomal preparations were terminated by addition of 2.5 mL isoamyl alcohol: ethyl acetate (1:100, v:v). The internal standard, hydroxyBupropion-d6, and a saturated sodium chloride solution (0.25 mL) were added to all samples. […]
Reaction velocities (V) were calculated using Equation 1:
V(nmol/min/mg)=calculated ng/mL×0.5mL/(MW ng/nmol)/min/mg Equation 1
Percentage of remaining activity was determined using the following equation: […]

As to `S=P(N1CC1)(N1CC1)N1CC1` [Positive Control, ThioTEPA], the activity at 75 μM amounted to 22.8%.
